Reference: US5849259A, “3-,8-substituted deuteroporphyrin derivatives, pharmaceutical agents containing the latter and process for their production” (priority 1992, dated 1998)

What was measured:
Relaxivity = type: physicochemical
HT29 colon cancer = test: Signal intensity change in tissues of tumor-bearing (HT29 colon cancer) nude mice, Bruker Biospec 2.35 Tesla, MSSE; type: in vivo, nude mice (Balb/c nu/nu); details: 0.05 mmol/kg i.v.; for enhancement, HT29 / enhancement, Kidneys / enhancement, Liver / enhancement, Muscle: time 0 = 100
Experimental: On a Bruker Biospec nuclear spin tomograph (2.35 Tesla), the al intensity change in various tissues of tumor-bearing (HT29 colon cancer) nude mice (Balb/c nu/nu) was studied after i.v administration of 0.05 mmol/kg of the compound according to example 1c (10 mmol/l, pH 7.2; 37° C. in bidistilled water). The measurement takes place with a multi slice single echo sequence (MSSE). Imaging parameters: TR: 400 ms, TE: 30 ms, layer thickness: 4 mm, number of averages: 4/slice, matrix 256^2. […]

[1] = Tissue relaxation times T1 and T2 (Bruker minispec pc 120) after 0.1 mmol/kg i.v.; type: in vivo, nude mice (Balb/c nu/nu)
Experimental: e) 9 nude mice (Balb/c nu/nu) with subcutaneously implanted colon cancers (HT29 and WiDr) were each administered by i.v. 0.1 mmol/kg of the deuteroporphyrin derivative of the compound according to example 1c (10 mmol/l dissolved in bidistilled water, pH 7.2, 37° C.). After 0.5, 3 and 24 hours, the animals were killed and dissected. The tissue concentrations were determined after corresponding working-up (HNO3 conc.) by ICP-AES and calculated for % of the administered dose per gram of tissue net weight. Moreover, tissue relaxation times T1 and T2 were determined (Bruker minispec pc 120).
(§1) f) 9 nude mice (Balb/c nu/nu) with subcutaneously implanted carcinomas (HT29, WiDr and MATLu) were each administered by i.v. 0.1 mmol/kg of the deuteroporphyrin derivative of example 1c (10 mmol/L dissolved in bidistilled water, pH 7.2, 37° C.). After 2 hours, the animals were killed and dissected. The tissue concentrations were determined after corresponding working-up (HNO3 conc.) by ICP-AES and calculated for % of the administered dose per gram of tissue net weight. Moreover, tissue relaxation times T1 and T2 were determined (Bruker minispec pc 120). To determine the blank readings, control animals were correspondingly studied without KM-administration.

VX-2 carcinoma = test: Signal intensity in tissues of tumor-bearing rabbit (VX-2 carcinoma), Siemens Magneton 1.5 Tesla; type: in vivo
Text: On a Siemens Magneton^(R) (1.5 Tesla; 64 MHz), the signal intensity in various tissues of a tumor-bearing rabbit [hare rabbit, Wulf, female, approximately 4 kg body weight (n=3), tumor of VX-2 carcinoma implanted intramuscularly about 3 weeks before the beginning of the test) was studied after the i.v. administration of […] body weight (corresponding to 0.05 mmol/kg of gadolinium) of the compound according to the invention produced according to Example 1c. The measurement took place with the following imaging parameters: T1 -weighted spin echo sequence: TR : 350 ms, TE : 15 ms, layer orientation: coronary, layer thickness 3 mm, number of averages: 4 per layer, field of view: 150 mm, matrix 256^2, 4-6 layers 1 echo per imaging sequence.
The relative signal intensities in various tissues are represented in FIG. 4. The output signal intensity (=SIprecontrast) in the various tissues was set equal to 1 in each case.

[2] = Tissue concentrations by ICP-AES 2 hours after 0.1 mmol/kg i.v. in nude mice with implanted carcinomas (HT29, WiDr, MATLu); type: in vivo, nude mice (Balb/c nu/nu)
Experimental: as §1

[3] = 0.0025 mmol/kg i.v. (corresponding to 0.05 mmol/kg of gadolinium)

N,N'-Bis[9-carboxylato-2,5,8-tris(carboxylatomethyl)-2,5,8-triazanonyl-carbamoyl]-mesoporphyrin-IX-13,17-diamide, digadolinium complex, disodium salt [Example 1c]
relaxivity (Relaxivity): 17.86 1 mmol^-1 s^-1
signal intensity change, tumor and muscle (HT29 colon cancer): only a slight change
enhancement, HT29 (HT29 colon cancer; 5 min): 116 ± 19
enhancement, Kidneys (HT29 colon cancer; 5 min): 185 ± 34
enhancement, Liver (HT29 colon cancer; 5 min): 122 ± 31
enhancement, Muscle (HT29 colon cancer; 5 min): 119 ± 8
signal intensity change, liver tissue (HT29 colon cancer; 5 minutes p.i.): marked signal intensity increase
enhancement, HT29 (HT29 colon cancer; 60 min): 128 ± 21
enhancement, Kidneys (HT29 colon cancer; 60 min): 240 ± 26
enhancement, Liver (HT29 colon cancer; 60 min): 164 ± 22
enhancement, Muscle (HT29 colon cancer; 60 min): 129 ± 7
enhancement, HT29 (HT29 colon cancer; 90 min): 148 ± 22
enhancement, Kidneys (HT29 colon cancer; 90 min): 248 ± 18
enhancement, Liver (HT29 colon cancer; 90 min): 202 ± 37
enhancement, Muscle (HT29 colon cancer; 90 min): 143 ± 21
enhancement, HT29 (HT29 colon cancer; 120 min): 155 ± 30
enhancement, Kidneys (HT29 colon cancer; 120 min): 246 ± 6
enhancement, Liver (HT29 colon cancer; 120 min): 194 ± 33
enhancement, Muscle (HT29 colon cancer; 120 min): 147 ± 17
enhancement, HT29 (HT29 colon cancer; 150 min): 167 ± 29
enhancement, Kidneys (HT29 colon cancer; 150 min): 225 ± 12
enhancement, Liver (HT29 colon cancer; 150 min): 197 ± 17
enhancement, Muscle (HT29 colon cancer; 150 min): 146 ± 8
enhancement, HT29 (HT29 colon cancer; 180 min): 161 ± 22
enhancement, Kidneys (HT29 colon cancer; 180 min): 212 ± 16
enhancement, Liver (HT29 colon cancer; 180 min): 212 ± 9
enhancement, Muscle (HT29 colon cancer; 180 min): 157 ± 8
tissue relaxation time T1, HT29 tumor ([1]; 0.5 hour): 410 ± 30 ms
tissue relaxation time T1, WiDr tumor ([1]; 0.5 hour): 320 ± 40 ms
tissue relaxation time T1, kidneys ([1]; 0.5 hour): 160 ± 10 ms
tissue relaxation time T1, liver ([1]; 0.5 hour): 220 ± 20 ms
tissue relaxation time T1, muscle ([1]; 0.5 hour): 500 ± 40 ms
tissue relaxation time T2, HT29 tumor ([1]; 0.5 hour): 81 ± 4 ms
tissue relaxation time T2, WiDr tumor ([1]; 0.5 hour): 67 ± 7 ms
tissue relaxation time T2, kidneys ([1]; 0.5 hour): 42 ± 1 ms
tissue relaxation time T2, liver ([1]; 0.5 hour): 34 ± 3 ms
tissue relaxation time T2, muscle ([1]; 0.5 hour): 32 ± 1 ms
effect on tissue relaxation times in prostate cancer (MATLu) versus colon cancers ([1]; 2 hours): greater than in the colon cancers
tissue relaxation time T1, HT29 tumor ([1]; 2 hours): 375 ± 32 ms
tissue relaxation time T1, MATLu ([1]; 2 hours): 361 ± 65 ms
tissue relaxation time T1, WiDr tumor ([1]; 2 hours): 358 ± 70 ms
tissue relaxation time T2, HT29 tumor ([1]; 2 hours): 94 ± 7 ms
tissue relaxation time T2, MATLu ([1]; 2 hours): 102 ± 10 ms
tissue relaxation time T2, WiDr tumor ([1]; 2 hours): 110 ± 9 ms
tissue relaxation time T1, HT29 tumor ([1]; 3 hours): 440 ± 70 ms
tissue relaxation time T1, WiDr tumor ([1]; 3 hours): 430 ± 50 ms
tissue relaxation time T1, kidneys ([1]; 3 hours): 230 ± 30 ms
tissue relaxation time T1, liver ([1]; 3 hours): 220 ± 30 ms
tissue relaxation time T1, muscle ([1]; 3 hours): 560 ± 40 ms
tissue relaxation time T2, HT29 tumor ([1]; 3 hours): 72 ± 8 ms
tissue relaxation time T2, WiDr tumor ([1]; 3 hours): 72 ± 7 ms
tissue relaxation time T2, kidneys ([1]; 3 hours): 47 ± 5 ms
tissue relaxation time T2, liver ([1]; 3 hours): 42 ± 2 ms
tissue relaxation time T2, muscle ([1]; 3 hours): 36 ± 3 ms
tissue relaxation time T1, HT29 tumor ([1]; 24 hours): 540 ± 20 ms
tissue relaxation time T1, WiDr tumor ([1]; 24 hours): 640 ± 10 ms
tissue relaxation time T1, kidneys ([1]; 24 hours): 240 ± 20 ms
tissue relaxation time T1, liver ([1]; 24 hours): 260 ± 10 ms
tissue relaxation time T1, muscle ([1]; 24 hours): 660 ± 10 ms
tissue relaxation time T2, HT29 tumor ([1]; 24 hours): 83 ± 7 ms
tissue relaxation time T2, WiDr tumor ([1]; 24 hours): 85 ± 2 ms
tissue relaxation time T2, kidneys ([1]; 24 hours): 54 ± 10 ms
tissue relaxation time T2, liver ([1]; 24 hours): 48 ± 7 ms
tissue relaxation time T2, muscle ([1]; 24 hours): 31 ± 1 ms
shortening of T1 tissue relaxation times, all three tumors ([1]; HT29, WiDr, MATLu, 2 hours): 2-3 factor
shortening of T1 tissue relaxation times, both tumors ([1]; HT29 and WiDr): 2-3 factor
tissue relaxation time T1, kidneys ([1]; HT29 mice, 2 hours): 150 ± 12 ms
tissue relaxation time T1, liver ([1]; HT29 mice, 2 hours): 174 ± 8 ms
tissue relaxation time T1, muscle ([1]; HT29 mice, 2 hours): 489 ± 57 ms
tissue relaxation time T2, kidneys ([1]; HT29 mice, 2 hours): 59 ± 3 ms
tissue relaxation time T2, liver ([1]; HT29 mice, 2 hours): 49 ± 2 ms
tissue relaxation time T2, muscle ([1]; HT29 mice, 2 hours): 56 ± 2 ms
tissue relaxation time T1, kidneys ([1]; MATLu mice, 2 hours): 171 ± 20 ms
tissue relaxation time T1, liver ([1]; MATLu mice, 2 hours): 191 ± 10 ms
tissue relaxation time T1, muscle ([1]; MATLu mice, 2 hours): 506 ± 10 ms
tissue relaxation time T2, kidneys ([1]; MATLu mice, 2 hours): 60 ± 1 ms
tissue relaxation time T2, liver ([1]; MATLu mice, 2 hours): 51 ± 2 ms
tissue relaxation time T2, muscle ([1]; MATLu mice, 2 hours): 54 ± 2 ms
tissue relaxation time T1, kidneys ([1]; WiDr mice, 2 hours): 159 ± 30 ms
tissue relaxation time T1, liver ([1]; WiDr mice, 2 hours): 180 ± 30 ms
tissue relaxation time T1, muscle ([1]; WiDr mice, 2 hours): 508 ± 40 ms
tissue relaxation time T2, kidneys ([1]; WiDr mice, 2 hours): 64 ± 2 ms
tissue relaxation time T2, liver ([1]; WiDr mice, 2 hours): 53 ± 5 ms
tissue relaxation time T2, muscle ([1]; WiDr mice, 2 hours): 62 ± 3 ms
enhancement, implanted tumor (VX-2 carcinoma; [3]): good long acting enhancement
enhancement, majority of the lymph nodes on the tumor-bearing side (VX-2 carcinoma; [3]): good long acting enhancement
diagnosis of metastasis of the lymph nodes (VX-2 carcinoma; confirmed by histological study): a metastasis attack of the lymph nodes could therefore be diagnosed
tissue concentration in prostate cancer (MATLu) versus colon cancers ([2]; 2 hours, 0.1 mmol/kg i.v.): greater than in the colon cancers
tissue concentration, kidneys ([2]; HT29 mice, 2 hours): 6.23 ± 1.80 % of the administered dose per gram of tissue net weight
tissue concentration, kidneys ([2]; MATLu mice, 2 hours): 2.73 ± 0.33 % of the administered dose per gram of tissue net weight
tissue concentration, kidneys ([2]; WiDr mice, 2 hours): 4.23 ± 0.19 % of the administered dose per gram of tissue net weight
tissue concentration, HT29 tumor ([2]; mouse, in vivo, iv, 2 h): 1.00 ± 0.27 % of the administered dose per gram of tissue net weight
tissue concentration, MATLu tumor ([2]; mouse, in vivo, iv, 2 h): 1.92 ± 2.09 % of the administered dose per gram of tissue net weight
tissue concentration, WiDr tumor ([2]; mouse, in vivo, iv, 2 h): 0.83 ± 0.05 % of the administered dose per gram of tissue net weight
